Test results taken from patent publication US9125913B2, “Bcl-2-selective apoptosis-inducing agents for the treatment of cancer and immune diseases” (AbbVie Inc., priority 2008, dated 2015).

Assays:
[1] = test system: FL5.12/Bcl-2 cells; experiment: FL5.12/Bcl-2 cell viability assay; assay type: cell-based, murine; conditions: ratio of canine platelet EC50 to FL5.12/Bcl-2 EC50
Summary of the method: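 Bcl-2-overexpressing murine FL5.12 transfectants underwent IL-3 removal for 48 hrs before a 24 hr compound treatment. Cell viability was quantified with CellTitre Glo.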

[2] = test system: GST-Bcl-2; experiment: TR-FRET binding assay, Bcl-2; conditions: TR-FRET Ki values
Summary of the method: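 Compounds serially diluted in DMSO from 50 μM (2× starting concentration, 10% DMSO), mixed with GST-tagged protein, F-Bak peptide probe and Tb-labeled antibody, incubated 3 h at room temperature.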

SMILES | Selectivity Ratio (Platelet EC50/FL5.12/Bcl-2 EC50) [1] | Binding selectivity ratio (Bcl-XL Ki/Bcl-2 Ki) [2]
CN(C)CCOc1ccc(-c2ccc(Cl)cc2)c(CN2CCN(c3ccc(C(=O)NS(=O)(=O)c4ccc(NC5CCN(C)CC5)c([N+](=O)[O-])c4)c(Oc4ccccc4)c3)CC2)c1 [Example 133, 4-[4-({4′-chloro-4-[2-(dimethylamino)ethoxy]-1,1′-biphenyl-2-yl}methyl)piperazin-1-yl]-N-({4-[(1-methylpiperidin-4-yl)amino]-3-nitrophenyl}sulfonyl)-2-phenoxybenzamide] | 5 | 31.2
CN(C)CCCOc1ccc(S(=O)(=O)NC(=O)c2ccc(N3CCN(CC4=C(c5ccc(Cl)cc5)CC(C)(C)CC4)CC3)cc2Oc2ccc3[nH]ccc3c2)cc1[N+](=O)[O-] [Example 100, 4-(4-{[2-(4-chlorophenyl)-4,4-dimethylcyclohex-1-en-1-yl]methyl}piperazin-1-yl)-N-({4-[3-(dimethylamino)propoxy]-3-nitrophenyl}sulfonyl)-2-(1H-indol-5-yloxy)benzamide] | 2029 | 71.4
CN(C)CCOc1cccc(-c2ccc(Cl)cc2)c1CN1CCN(c2ccc(C(=O)NS(=O)(=O)c3ccc(NCC4CCOCC4)c([N+](=O)[O-])c3)c(Oc3ccccc3)c2)CC1 [Example 122, 4-[4-({4′-chloro-3-[2-(dimethylamino)ethoxy]-1,1′-biphenyl-2-yl}methyl)piperazin-1-yl]-N-({3-nitro-4-[(tetrahydro-2H-pyran-4-ylmethyl)amino]phenyl}sulfonyl)-2-phenoxybenzamide] | >1259 | 209.4
O=C(NS(=O)(=O)c1ccc(NCCCN2CCCC2)c([N+](=O)[O-])c1)c1ccc(N2CCN(CC3=C(c4ccc(Cl)cc4)CCCCC3)CC2)cc1Oc1cccc2[nH]ccc12 [Example 141, 4-(4-{[2-(4-chlorophenyl)cyclohept-1-en-1-yl]methyl}piperazin-1-yl)-2-(1H-indol-4-yloxy)-N-({3-nitro-4-[(3-pyrrolidin-1-ylpropyl)amino]phenyl}sulfonyl)benzamide] | >661 | 42.6
CN(C)CCOc1ccc(-c2ccc(Cl)cc2)c(CN2CCN(c3ccc(C(=O)NS(=O)(=O)c4ccc(NCCCN5CCCC5)c([N+](=O)[O-])c4)c(Oc4ccc5[nH]ccc5c4)c3)CC2)c1 [Example 135, 4-[4-({4′-chloro-4-[2-(dimethylamino)ethoxy]-1,1′-biphenyl-2-yl}methyl)piperazin-1-yl]-2-(1H-indol-5-yloxy)-N-({3-nitro-4-[(3-pyrrolidin-1-ylpropyl)amino]phenyl}sulfonyl)benzamide] | 108 | 779.9
O=C(NS(=O)(=O)c1ccc(NCC2CCOCC2)c([N+](=O)[O-])c1)c1ccc(N2CCN(Cc3cc(CCN4CCCC4)ccc3-c3ccc(Cl)cc3)CC2)cc1Oc1cccc2[nH]ccc12 [Example 25, 4-(4-{[4′-chloro-4-(2-pyrrolidin-1-ylethyl)-1,1′-biphenyl-2-yl]methyl}piperazin-1-yl)-2-(1H-indol-4-yloxy)-N-({3-nitro-4-[(tetrahydro-2H-pyran-4-ylmethyl)amino]phenyl}sulfonyl)benzamide] | >1020 | 4103.8
CN1CCC(Nc2ccc(S(=O)(=O)NC(=O)c3ccc(N4CCN(CC5=C(c6ccc(Cl)cc6)CC(C)(C)CC5)CC4)cc3Oc3ccccc3)cc2[N+](=O)[O-])CC1 [Example 152, 4-(4-{[2-(4-chlorophenyl)-4,4-dimethylcyclohex-1-en-1-yl]methyl}piperazin-1-yl)-N-({4-[(1-methylpiperidin-4-yl)amino]-3-nitrophenyl}sulfonyl)-2-phenoxybenzamide] | 283 | 15.8
CN(C)CCOc1ccc(-c2ccc(Cl)cc2)c(CN2CCN(c3ccc(C(=O)NS(=O)(=O)c4ccc(NC5CCN(CC(F)(F)F)CC5)c([N+](=O)[O-])c4)c(Oc4ccccc4)c3)CC2)c1 [Example 137, 4-[4-({4′-chloro-4-[2-(dimethylamino)ethoxy]-1,1′-biphenyl-2-yl}methyl)piperazin-1-yl]-N-[(3-nitro-4-{[1-(2,2,2-trifluoroethyl)piperidin-4-yl]amino}phenyl)sulfonyl]-2-phenoxybenzamide] | >178 | 52.4
O=C(NS(=O)(=O)c1ccc(NCC2CCOCC2)c([N+](=O)[O-])c1)c1ccc(N2CCN(Cc3ccccc3-c3ccc(Cl)cc3)CC2)cc1Oc1ccc2[nH]ccc2c1 [Example 40, 4-{4-[(4′-chloro-1,1′-biphenyl-2-yl)methyl]piperazin-1-yl}-2-(1H-indol-5-yloxy)-N-({3-nitro-4-[(tetrahydro-2H-pyran-4-ylmethyl)amino]phenyl}sulfonyl)benzamide] | >303 | >1236.0
CC1(C)CCC(CN2CCN(c3ccc(C(=O)NS(=O)(=O)c4ccc(NCCCN5CCOCC5)c([N+](=O)[O-])c4)c(Oc4ccc5[nH]ccc5c4)c3)CC2)=C(c2ccc(Cl)cc2)C1 [Example 52, 4-(4-{[2-(4-chlorophenyl)-4,4-dimethylcyclohex-1-en-1-yl]methyl}piperazin-1-yl)-2-(1H-indol-5-yloxy)-N-({4-[(3-morpholin-4-ylpropyl)amino]-3-nitrophenyl}sulfonyl)benzamide] | >3164 | 333.9
CN(C)CCCNc1ccc(S(=O)(=O)NC(=O)c2ccc(N3CCN(Cc4ccccc4-c4ccc(Cl)cc4)CC3)cc2Oc2ccc3ccccc3c2)cc1[N+](=O)[O-] [Example 166, 4-{4-[(4′-chloro-1,1′-biphenyl-2-yl)methyl]piperazin-1-yl}-N-[(4-{[3-(dimethylamino)propyl]amino}-3-nitrophenyl)sulfonyl]-2-(2-naphthyloxy)benzamide] | >327 | 7.1
CC1(C)CCC(CN2CCN(c3ccc(C(=O)NS(=O)(=O)c4ccc(NCCCN5CCCC5)c([N+](=O)[O-])c4)c(Oc4cccc5[nH]ccc45)c3)CC2)=C(c2cccc(C(F)(F)F)c2)C1 [Example 71, 4-[4-({4,4-dimethyl-2-[3-(trifluoromethyl)phenyl]cyclohex-1-en-1-yl}methyl)piperazin-1-yl]-2-(1H-indol-4-yloxy)-N-({3-nitro-4-[(3-pyrrolidin-1-ylpropyl)amino]phenyl}sulfonyl)benzamide] | >107 | >105.9
CN1CCC(Nc2ccc(S(=O)(=O)NC(=O)c3ccc(N4CCN(CC5=C(c6ccc(Cl)cc6)CCCC5)CC4)cc3Oc3cccc4[nH]ccc34)cc2[N+](=O)[O-])CC1 [Example 149, 4-(4-{[2-(4-chlorophenyl)cyclohex-1-en-1-yl]methyl}piperazin-1-yl)-2-(1H-indol-4-yloxy)-N-({4-[(1-methylpiperidin-4-yl)amino]-3-nitrophenyl}sulfonyl)benzamide] | 1298 | >2490.6
O=C(NS(=O)(=O)c1ccc(NCC2CCOCC2)c([N+](=O)[O-])c1)c1ccc(N2CCN(Cc3c(OCCN4CCOCC4)cccc3-c3ccc(Cl)cc3)CC2)cc1Oc1cccc2[nH]ccc12 [Example 131, 4-(4-{[4′-chloro-3-(2-morpholin-4-ylethoxy)-1,1′-biphenyl-2-yl]methyl}piperazin-1-yl)-2-(1H-indol-4-yloxy)-N-({3-nitro-4-[(tetrahydro-2H-pyran-4-ylmethyl)amino]phenyl}sulfonyl)benzamide] | >1597 | 2292.2
CN(C)CCOc1ccc(-c2ccc(Cl)cc2)c(CN2CCN(c3ccc(C(=O)NS(=O)(=O)c4ccc(NCCCN5CCCC5)c([N+](=O)[O-])c4)c(Oc4ccccc4)c3)CC2)c1 [Example 121, 4-[4-({4′-chloro-4-[2-(dimethylamino)ethoxy]-1,1′-biphenyl-2-yl}methyl)piperazin-1-yl]-N-({3-nitro-4-[(3-pyrrolidin-1-ylpropyl)amino]phenyl}sulfonyl)-2-phenoxybenzamide] | 8 | 388
CN1CCC(Nc2ccc(S(=O)(=O)NC(=O)c3ccc(N4CCN(CC5=C(c6ccc(Cl)cc6)CC(C)(C)CC5)CC4)cc3Oc3ccc4[nH]ncc4c3)cc2[N+](=O)[O-])CC1 [Example 21, 4-(4-{[2-(4-chlorophenyl)-4,4-dimethylcyclohex-1-en-1-yl]methyl}piperazin-1-yl)-2-(1H-indazol-5-yloxy)-N-({4-[(1-methylpiperidin-4-yl)amino]-3-nitrophenyl}sulfonyl)benzamide] | >49 | 35.1
CN(C)CCOc1ccc(-c2ccc(Cl)cc2)c(CN2CCN(c3ccc(C(=O)NS(=O)(=O)c4ccc(NCC5CCOCC5)c(S(=O)(=O)C(F)(F)F)c4)c(Oc4ccccc4)c3)CC2)c1 [Example 120, 4-[4-({4′-chloro-4-[2-(dimethylamino)ethoxy]-1,1′-biphenyl-2-yl}methyl)piperazin-1-yl]-2-phenoxy-N-({4-[(tetrahydro-2H-pyran-4-ylmethyl)amino]-3-[(trifluoromethyl)sulfonyl]phenyl}sulfonyl)benzamide] | >157 | 224.8
CC1(C)CCC(CN2CCN(c3ccc(C(=O)NS(=O)(=O)c4ccc(NCCCN5CCCC5)c([N+](=O)[O-])c4)c(Oc4ccc5[nH]ccc5c4)c3)CC2)=C(c2ccc(Cl)cc2)C1 [Example 97, 4-(4-{[2-(4-chlorophenyl)-4,4-dimethylcyclohex-1-en-1-yl]methyl}piperazin-1-yl)-2-(1H-indol-5-yloxy)-N-({3-nitro-4-[(3-pyrrolidin-1-ylpropyl)amino]phenyl}sulfonyl)benzamide] | 1052 | 96.7
